Assay results published in ChEMBL document CHEMBL5360549, “Recent advances in the development of methyltransferase (MTase) inhibitors against (re)emerging arboviruses diseases dengue and Zika” (Eur J Med Chem, 2023).
Blank lines part the entries; values can stand above or below the compound they belong to.

Tests used:
[1] = Inhibition of Dengue virus 3 nucleoside-2'O-methyltransferase assessed as inhibition constant; parameters: species or system dengue virus type 3
[2] = Inhibition of Dengue virus 3 guanine-N7 methyltransferase assessed as inhibition constant; parameters: species or system dengue virus type 3
[3] = Binding affinity to Zika virus NS5-methyltransferase assessed as dissociation constant by isothermal titration microcalorimetry method
[4] = Cytotoxicity against human A549 cells assessed as reduction in cell growth measured after 24 hrs by MTT assay; format: toxicity, cell-based
[5] = Cytotoxicity against HEK293T cells assessed as reduction in cell growth measured after 24 hrs by MTT assay; format: toxicity, cell-based, HEK-293T; settings: human
[6] = test system: dengue virus type 4; test: Antiviral activity against Dengue virus 4 infected in asian tiger mosquito C6/36 cells assessed as reduction in virus replication by methyleneblue staining based analysis; format: functional, organism-based
[7] = Cytotoxicity against hamster BHK-21 cells assessed as reduction in cell growth measured after 24 hrs by MTT assay; format: toxicity, cell-based, Mesocricetus auratus
[8] = test system: dengue virus type 2; test: Antiviral activity against Dengue virus 2 infected in asian tiger mosquito C6/36 cells assessed as reduction in virus replication by methyleneblue staining based analysis; format: functional, organism-based
[9] = Cytotoxicity against human Huh-7 cells assessed as reduction in cell growth measured after 24 hrs by MTT assay; format: toxicity, cell-based
[10] = test system: dengue virus type 1; test: Antiviral activity against Dengue virus 1 infected in asian tiger mosquito C6/36 cells assessed as reduction in virus replication by methyleneblue staining based analysis; format: functional, organism-based
[11] = test system: Zika virus; test: Antiviral activity against Zika virus infected in African green monkey Vero cells assessed as reduction in viral plaques by plaque reduction assay; format: functional, organism-based
[12] = test system: Zika virus; test: Inhibition of Zika virus NS5-methyltransferase at 50 uM using GpppAC4 and [3H]AdoMet as substrate incubated for 30 mins by liquid scintillation counter analysis relative to control
[13] = Inhibition of Zika virus NS5-methyltransferase using GpppAC4 and [3H]AdoMet as substrate incubated for 30 mins by liquid scintillation counter analysis
[14] = molecular target: T1, mRNA cap guanine-N(7) methyltransferase (Homo sapiens, UniProt O43148); test: Inhibition of human RNMT assessed as inhibition constant
[15] = molecular target: T1, mRNA cap guanine-N(7) methyltransferase; test: Inhibition of human RNMT at 50 uM using polyU as substrate incubated for 10 mins in presence of [3H] ATP and ATP by liquid scintillation counter analysis relative to control
[16] = test system: dengue virus type 2; test: Inhibition of Dengue virus 2 NS5-methyltransferase at 50 uM by HTRF assay relative to control
[17] = Inhibition of Dengue virus NS5-methyltransferase using GpppAC4 and [3H]AdoMet as substrate incubated for 30 mins by liquid scintillation counter analysis
[18] = molecular target: T1, mRNA cap guanine-N(7) methyltransferase; test: Inhibition of human RNMT using GpppAC4 and [3H]AdoMet as substrate incubated for 30 mins by liquid scintillation counter analysis
[19] = test system: Zika virus; test: Antiviral activity against Zika virus; format: functional, organism-based

T1 sequence (O43148 whole entry): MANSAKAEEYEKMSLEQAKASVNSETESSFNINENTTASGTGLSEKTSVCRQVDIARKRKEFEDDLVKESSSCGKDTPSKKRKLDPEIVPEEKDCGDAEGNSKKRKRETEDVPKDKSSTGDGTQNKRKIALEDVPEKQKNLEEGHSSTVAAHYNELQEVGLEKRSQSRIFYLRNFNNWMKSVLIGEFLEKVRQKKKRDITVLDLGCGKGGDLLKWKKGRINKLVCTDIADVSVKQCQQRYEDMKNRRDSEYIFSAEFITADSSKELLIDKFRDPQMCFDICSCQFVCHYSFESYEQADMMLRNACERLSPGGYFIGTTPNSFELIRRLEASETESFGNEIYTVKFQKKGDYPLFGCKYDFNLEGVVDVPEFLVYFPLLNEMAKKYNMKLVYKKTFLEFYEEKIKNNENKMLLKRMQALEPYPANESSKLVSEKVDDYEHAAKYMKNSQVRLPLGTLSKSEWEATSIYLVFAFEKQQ

Compound: N[C@H](CCSC[C@H]1O[C@@H](n2cnc3c(Nc4ccccc4)ncnc32)[C@H](O)[C@@H]1O)C(=O)O
Ki [1]: 150 nM
Ki [2]: 770 nM

Compound: C[S+](CC[C@H](N)C(=O)[O-])C[C@H]1O[C@@H](n2cnc3c(N)ncnc32)[C@H](O)[C@@H]1O (stereo partly specified) [ADEMETIONINE]
Kd [3]: 2580 nM

Compound: N[C@H](CCSC[C@H]1O[C@@H](n2cnc3c(NCc4ccccc4)ncnc32)[C@H](O)[C@@H]1O)C(=O)O
Ki [1]: 150 nM
Ki [2]: 770 nM

Compound: CCC(/C(C)=C/c1cc(OC)c(OC)cc1OC)c1cc(OC)c(OC)cc1OC (stereo unspecified)
CC50 at 24 h [4]: > 80000 nM
CC50 at 24 h [5]: > 80000 nM
EC50 [6]: 4540 nM
CC50 at 24 h [7]: > 80000 nM
EC50 [8]: 4500 nM
CC50 at 24 h [9]: > 80000 nM
EC50 [10]: 4270 nM

EC50 [11]: 17500 nM
Compound: Cc1ccc2c(c1)c(=O)c(C(=O)c1ccccc1)cn2CC(=O)Nc1ccccc1C

EC50 [11]: 4800 nM
Compound: O=C1c2cccc3cccc(c23)C(=O)N1CCc1ccc(S(=O)(=O)N2CCN(c3ccccc3)CC2)cc1

inhibition [12]: 30%
Compound: COc1ccc(NC(=O)Nc2ccc3c(c2)c2ccccc2n3CCc2ccccc2)c(OC)c1
IC50 [13]: 23000 nM

Compound: N[C@H](CCSC[C@H]1O[C@@H](n2cnc3c(NCCc4ccccc4)ncnc32)[C@H](O)[C@@H]1O)C(=O)O
Ki [1]: 150 nM
Ki [2]: 770 nM

Compound: CNc1ncnc2c1ncn2[C@@H]1O[C@H](CSCC[C@@H](N)C(=O)O)[C@@H](O)[C@H]1O
Ki [1]: 150 nM
Ki [2]: 770 nM

Ki [14]: > 50000 nM
Compound: Nc1ncnc2c1ncn2[C@@H]1O[C@H](CSCC[C@H](N)C(=O)O)[C@@H](O)[C@H]1O [S-ADENOSYLHOMOCYSTEINE]
Ki [1]: 570 nM
Ki [2]: 3190 nM

Compound: Nc1ncnc2c1ncn2[C@@H]1O[C@H](CN(CCC(N)C(=O)O)Cc2ccc(F)cc2)[C@@H](O)[C@H]1O (stereo partly specified)
Kd [3]: 24300 nM

inhibition [15]: 96%
inhibition [16]: 98.6%
Compound: CCCCCCCCCCCCCCCC[N+](C)(C)CCN(Cc1ccc(OC)cc1)c1ncccn1

inhibition [12]: 30%
Compound: COc1ccc(NC(=O)Nc2ccc3c(c2)c2ccccc2n3Cc2ccccc2)c(OC)c1
IC50 [13]: 23000 nM

Compound: N[C@H](CCSC[C@H]1O[C@@H](n2cnc3c(NCc4cccc(Cl)c4)ncnc32)[C@H](O)[C@@H]1O)C(=O)O
Ki [1]: 170 nM
Ki [2]: 820 nM

Compound: Nc1ncnc2c1ncn2[C@@H]1O[C@H](C[C@@H](N)CC[C@H](N)C(=O)O)[C@@H](O)[C@H]1O [SINEFUNGIN]
IC50 [17]: 1180 nM
IC50 [18]: 5300 nM

EC50 [11]: 17600 nM
Compound: Cc1ccnc(NS(=O)(=O)c2ccc(NC(=O)c3ccc(S(=O)(=O)N4CCc5ccccc5C4)cc3)cc2)n1

Compound: Cc1ccccc1CNc1ncnc2c1ncn2[C@@H]1O[C@H](CSCC[C@@H](N)C(=O)O)[C@@H](O)[C@H]1O
Ki [1]: 150 nM
Ki [2]: 770 nM

Compound: N[C@H](CCSC[C@H]1O[C@@H](n2cnc3c(NCc4cccc(I)c4)ncnc32)[C@H](O)[C@@H]1O)C(=O)O
Ki [1]: 150 nM
Ki [2]: 770 nM

Compound: N[C@H](CCSC[C@H]1O[C@@H](n2cnc3c(NCc4cccc(Br)c4)ncnc32)[C@H](O)[C@@H]1O)C(=O)O
Ki [1]: 150 nM
Ki [2]: 770 nM

EC50 [19]: > 3990 nM
inhibition [12]: 30%
Compound: CCn1c2ccccc2c2cc(NC(=O)Nc3ccc([N+](=O)[O-])cc3C)ccc21
IC50 [13]: 35000 nM
IC50 [17]: 38000 nM

inhibition [12]: 30%
Compound: O=C(Nc1ccc(I)cc1)Nc1ccc2c(c1)c1ccccc1n2Cc1ccccc1
IC50 [13]: 23000 nM

Compound: N[C@H](CCSC[C@H]1O[C@@H](n2cnc3c(NC4CC4)ncnc32)[C@H](O)[C@@H]1O)C(=O)O
Ki [1]: 150 nM
Ki [2]: 770 nM

inhibition [15]: 98.6%
inhibition [16]: 97.8%
Compound: Cc1cc(/C=C/c2ccc3cc(N(C)C)ccc3[n+]2C)c(C)n1-c1ccccc1

Compound: N[C@H](CCSC[C@H]1O[C@@H](n2cnc3c(NCc4cccc(F)c4)ncnc32)[C@H](O)[C@@H]1O)C(=O)O
Ki [1]: 150 nM
Ki [2]: 770 nM

EC50 [11]: 12500 nM
Compound: COCCCNC(=O)c1ccc(Cn2c(=O)c3ccccc3n(CC(=O)NCCc3ccc(OC)c(OC)c3)c2=O)cc1

Compound: Cc1cccc(CNc2ncnc3c2ncn3[C@@H]2O[C@H](CSCC[C@@H](N)C(=O)O)[C@@H](O)[C@H]2O)c1
Ki [1]: 150 nM
Ki [2]: 770 nM

Compound: Cc1ccc(CNc2ncnc3c2ncn3[C@@H]2O[C@H](CSCC[C@@H](N)C(=O)O)[C@@H](O)[C@H]2O)cc1
Ki [1]: 150 nM
Ki [2]: 770 nM
